Reference: PMC12024912, “Druggability Studies of Benzene Sulfonamide Substituted Diarylamide (E3) as a Novel Diuretic” (Biomedicines, 2025)

Key:
[1] = tested on: mice; experiment: Long-term (7 d) diuretic activity in mice; type: in vivo, mouse
Method: In a single-dose administration experiment, male wild-type (WT) mice, UT-B^-/- mice, UT-A1^-/- mice, or SD rats were adapted in metabolic cages for 3 d. Food and water were provided ad libitum throughout the experiment. Prior to administration, the bladder of each animal was emptied through gentle abdominal massage, and urine was collected from the metabolic cages every 2 h. Compound E3, suspended in 0.5% CMC-Na at an appropriate concentration, was administered intragastric gavage to the mice or rats (0.16, 0.8, 4, or 20 mg/kg). Vehicle control comprised 0.5% (w/v) CMC-Na. Urinary parameters were determined through the following: volume: Gravimetric analysis (1 g/mL density assumption); osmolality: freezing-point osmometry (Micro-osmometer, […] Associates, Norwood, MA, USA); and urea: diacetyl oxime colorimetry (QuantiChrom® kit, Elabscience, Wuhan, China). In long-term (7 d) diuretic activity experiments, male WT mice, UT-B^-/- mice, UT-A1^-/- mice, and SD rats were acclimatized in metabolic cages (Ugo Basile, Comerio, VA, Italy) for 3 d. Food and water were provided ad libitum throughout the experiment. E3 was suspended in 0.5% CMC-Na and administered at a dose of 4 or 20 mg/kg by intragastric gavage. Urine was collected by metabolic cages every 24 h. Body weight was measured daily. At 4 h after the final administration, a blood sample was obtained by heart puncture. Inner medulla and outer medulla tissue homogenates were prepared, and the supernatant after centrifugation was analyzed for solute concentration and osmolality. Urinary osmolality and urea concentration were measured as above. Serum Na^+, K^+, and Cl^- were measured in a clinical chemistry laboratory, while serum creatinine, ALT, and AST were measured through specific reagent kits (NJJC Bio, Nanjing, China).

[2] = tested on: SD rats; experiment: Long-term (7 d) diuretic activity in rats; type: in vivo, rat; conditions: for ALT / AST / Body weight / Brain index / Heart index / Kidney index / Liver index / Serum K / Serum Na / Serum creatinine / Serum urea / Spleen index / Testis index: n=6
Method: In a single-dose administration experiment, male wild-type (WT) mice, UT-B^−/− mice, UT-A1^−/− mice, or SD rats were adapted in metabolic cages for 3 d. Food and water were provided ad libitum throughout the experiment. Prior to administration, the bladder of each animal was emptied through gentle abdominal massage, and urine was collected from the metabolic cages every 2 h. Compound E3, suspended in 0.5% CMC-Na at an appropriate concentration, was administered intragastric gavage to the mice or rats (0.16, 0.8, 4, or 20 mg/kg). Vehicle control comprised 0.5% (w/v) CMC-Na. Urinary parameters were determined through the following: volume: Gravimetric analysis (1 g/mL density assumption); osmolality: freezing-point osmometry (Micro-osmometer, Fisker Associates, Norwood, MA, USA); and urea: diacetyl oxime colorimetry (QuantiChrom® kit, Elabscience, Wuhan, China). In long-term (7 d) diuretic activity experiments, male WT mice, UT-B^−/− mice, UT-A1^−/− mice, and SD rats were acclimatized in metabolic cages (Ugo Basile, Comerio, VA, Italy) for 3 d. Food and water were provided ad libitum throughout the experiment. E3 was suspended in 0.5% CMC-Na and administered at a dose of 4 or 20 mg/kg by intragastric gavage. Urine was collected by metabolic cages every 24 h. Body weight was measured daily. At 4 h after the final administration, a blood sample was obtained by heart puncture. Inner medulla and outer medulla tissue homogenates were prepared, and the supernatant after centrifugation was analyzed for solute concentration and osmolality. Urinary osmolality and urea concentration were measured as above. Serum Na^+, K^+, and Cl^− were measured in a clinical chemistry laboratory, while serum creatinine, ALT, and AST were measured through specific reagent kits (NJJC Bio, Nanjing, China).
Multiple tissues and organs were fixed with 4% paraformaldehyde and embedded in paraffin. Five μm paraffin sections were cut and stained with hematoxylin and eosin (H&E).
Inner medulla tissues were homogenized in ice-cold RIPA buffer supplemented with protease/phosphatase inhibitors (Roche, Basel, Switzerland). Following centrifugation (12,000× g, 15 min, 4 °C), supernatants were subjected to BCA quantification (Thermo Scientific, Waltham, MA, USA). Protein lysates underwent SDS-PAGE separation and electrotransfer to PVDF membranes (Amersham Biosciences, Boston, MA, USA). After 2 h blocking with 5% skimmed milk, membranes were sequentially processed with: (1) TBST washes (20 mM Tris-HCl, 137 mM NaCl, 0.1% Tween-20, pH 7.4); (2) primary antibodies (UT-A1/A2/A3, UT-B, AQP2/3, β-actin; 4 °C, 12 h); and (3) HRP-conjugated secondary antibodies (anti-mouse/rabbit IgG; RT, 2 h). Chemiluminescent detection employed the ECL reagent (Meilunbio, Dalian, China) on a Syngene GeneGnome XRQ system, with band quantification via ImageJ (v1.53k).

[3] = UT-B−/− mice, long-term treatment
[4] = mice, oral 20 mg/kg, consecutive administrations

CC(=O)c1ccc(C(=O)Nc2cccc(NS(=O)(=O)c3ccccc3)c2)o1 [Compound E3, 5-acetyl-N-(3-(phenylsulfonamido)phenyl)furan-2-carboxamide]
diuretic effect ([1]; UT-A1−/− mice, long-term treatment): no significant diuretic effect | urine osmolality [1, 3]: decreased | urine output [1, 3]: increased | excretion of non-urea solutes [1, 4]: no significant difference | urine osmolality [1, 4]: significantly decreased | urine output [1, 4]: significantly increased | urine urea concentration [1, 4]: significantly decreased | urine output ([2]; 4 mg/kg and 20 mg/kg intragastric, 7 d): continuously increased | ALT ([2]; 4 mg/kg, 7 d): 42.2±5.5 U/L | AST ([2]; 4 mg/kg, 7 d): 113.0±10.6 U/L | Body weight ([2]; 4 mg/kg, 7 d): 242.4 ± 2.3 g | Brain index ([2]; 4 mg/kg, 7 d): 0.58±0.01% | Heart index ([2]; 4 mg/kg, 7 d): 0.38±0.01% | Kidney index ([2]; 4 mg/kg, 7 d): 0.78±0.03% | Liver index ([2]; 4 mg/kg, 7 d): 3.98±0.08% | Serum K ([2]; 4 mg/kg, 7 d): 5.16 ± 0.10 mM | Serum Na ([2]; 4 mg/kg, 7 d): 140.7 ± 1.2 mM | Serum creatinine ([2]; 4 mg/kg, 7 d): 33.6 ± 1.7 µM | Serum urea ([2]; 4 mg/kg, 7 d): 7.15 ± 0.16 mM | Spleen index ([2]; 4 mg/kg, 7 d): 0.30±0.02% | Testis index ([2]; 4 mg/kg, 7 d): 0.88±0.06% | ALT ([2]; 20 mg/kg, 7 d): 40.2±1.9 U/L | AST ([2]; 20 mg/kg, 7 d): 112.9±4.5 U/L | Body weight ([2]; 20 mg/kg, 7 d): 240.8 ± 4.1 g | Brain index ([2]; 20 mg/kg, 7 d): 0.64±0.01% | Heart index ([2]; 20 mg/kg, 7 d): 0.40±0.01% | Kidney index ([2]; 20 mg/kg, 7 d): 0.73±0.03% | Liver index ([2]; 20 mg/kg, 7 d): 3.99±0.06% | Serum K ([2]; 20 mg/kg, 7 d): 4.98 ± 0.12 mM | Serum Na ([2]; 20 mg/kg, 7 d): 141.3 ± 1.0 mM | Serum creatinine ([2]; 20 mg/kg, 7 d): 34.1 ± 1.6 µM | Serum urea ([2]; 20 mg/kg, 7 d): 7.18 ± 0.19 mM | Spleen index ([2]; 20 mg/kg, 7 d): 0.29±0.01% | Testis index ([2]; 20 mg/kg, 7 d): 0.94±0.02% | excretion of non-urea solutes ([2]; 4 and 20 mg/kg, 7 d): did not change | urine osmolality ([2]; 4 and 20 mg/kg, 7 d): significantly decreased | H&E staining of cortex and medulla of rat kidneys ([2]; 7 d, except dilatation of the collecting duct due to polyuria): did not induce morphological abnormalities | non-urea solutes in inner medullary tissue ([2]; 7 d, vs control): did not change | osmolality in inner medullary tissue ([2]; 7 d, vs control): significantly decreased | outer medullary osmolality, urea concentration, and non-urea solute concentration ([2]; 7 d, vs control): no differences | urea concentration in inner medullary tissue ([2]; 7 d, vs control): significantly decreased | body weight, organ indexes, blood biochemical parameters (incl. serum Na+, K+, Cl−) ([2]; after 7 d of treatment, vs control): no significant difference
